Data published in patent US9629822B2, “Flavonoid based antiviral targets” (UNIVERSITY OF CENTRAL FLORIDA RESEARCH FOUNDATION, INC., priority 2012, dated 2017).
Read-outs that look alike come from different tables or passages of the source.

How the values were obtained:
US28 receptor = target: T1, US28 receptor (Human cytomegalovirus, UniProt P69332); assay: PathDetect trans Elk1 luciferase reporter gene assay in US28-transfected 293T HEK cells; assay type: cell-based, Human Cytomegalovirus (HCMV); conditions: for EC50: 293T HEK cells transiently expressing US28, Elk1 reporter; for Emax: read-out: Efficacy(%), maximum intrinsic activity from dose-response curve; for type of activity on the US28 receptor (agonist / inverse agonist / none), in words: Elk1 reporter, US28-transfected HEK cells
T1 construct: expressed in transfected cells; host or cells: HEK 293T cells, transiently transfected
T1 sequence (P69332 whole entry): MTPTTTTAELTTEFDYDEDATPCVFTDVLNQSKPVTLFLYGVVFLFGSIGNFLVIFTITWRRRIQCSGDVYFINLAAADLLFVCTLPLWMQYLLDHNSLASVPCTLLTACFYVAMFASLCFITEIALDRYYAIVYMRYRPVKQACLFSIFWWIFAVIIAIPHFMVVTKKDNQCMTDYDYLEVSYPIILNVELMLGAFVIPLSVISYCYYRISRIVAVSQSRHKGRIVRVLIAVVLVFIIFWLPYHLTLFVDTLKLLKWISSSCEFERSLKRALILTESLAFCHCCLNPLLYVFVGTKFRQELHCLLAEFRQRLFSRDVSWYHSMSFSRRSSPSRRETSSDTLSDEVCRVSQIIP
Excerpt: Having generated a homologous series of chalcones and flavones, their ability to interact with the US28 receptor in human embryonic kidney (HEK) cells was investigated using an Elk-1 gene reporter assay (FIG. 2). HEK cells were transfected with either an empty vector (i.e., mock cells) or with a vector carrying US 28. These matched HEK cells provided a means to evaluate off-target effects as well as innate drug toxicity. As many of the flavonoid drugs were not water-soluble, all drug stock solutions were made in 100% dimethylsulfoxide (DMSO). The final DMSO concentration for each cell-based experiment, however, was 1% DMSO. To account for the presence of DMSO, 1% DMSO controls were run in parallel. […] values of the homologous series were also determined in Chinese hamster ovary (CHO) cells in order to assess the relative toxicities of each member of the series in a different cell line (see Table 1).
Interaction with the US28 receptor was measured by a decrease in luminescence using a firefly (Photinus pyralis) luciferase-based PathDetect Elk1 gene reporter assay (FIG. 2).^23,24 This assay assessed the modulation of US28-mediated activation of mitogen-activated protein kinase (MAPK) signaling pathways (results are shown in Table 1). […] Such compounds which reduce MAPK signaling will have direct utility in the treatment of proliferative disorders including but not limited cancer.
After transfection the US28 is expressed and activates MAPK. The MAPK phosphorylates the activator domain of the GAL4dbd/Elk1 fusion protein, and causes its dimerization. The dimer then binds to the GAL4 UAS region of the reporter gene and allows for luciferase transcription. The luciferase mRNA is then translated and the luciferase protein is detected via luminescence by the use of the Bright-Glo reagent.
(§1) The efficacy of each compound on the US28 receptor was investigated in luciferase based reporter gene assay PathDetect trans Elk1 (Agilent, Stratagene)^23 as described previously.^13 Briefly, the human embryonic kidney (HEK) 293T cells were transiently-transfected with 0.1 μg Elk1, 5 μg Luc, and 5 μg of US28 vector or empty pcDNA3 vector (mock cells). Five hours after transfection, the cells were washed with DMEM containing 1% FBS, harvested, seeded in a white half-area 96-well plate (20,000 cells/well) and incubated with the indicated concentrations of test compounds. The incubation buffer consisted of DMEM, 1% FBS, 2 mM L-glutamine, 1% penicillin-streptomycin and 1% DMSO. The cells were incubated at 37° C. in the humid atmosphere with 5% CO2 for an additional 20-24 hours. The luciferase substrate BrightGlo (Promega) was used according to the manufacturer's instruction. The luminescence intensity was acquired using microplate reader Victor3V (Perkin-Elmer). The basal luminescence of mock transfected cells was approximately 500 RLU and the basal luminescence of US28-transfected cells was 4-5-fold higher (2000-2500 RLU). As the inhibitors gave differential responses in terms of their ability to reduce US 28 mediated signaling, their relative EC50 values were determined by dosing the US-28 transfected HEK cells with increasing concentrations of each compound. In this case, the EC50 value is the concentration of the compound needed to provoke a response halfway between the compound's maximal response (change in luminescence) and the no-compound control in the same US-28 transfected cell line. A plot of relative luminescence versus log of the compound concentration provided a dose-response curve from which the % efficacy was derived via non-linear regression methods using the algorithms in PRISM 5.0 (GraphPad Software, San Diego, Calif.).

HIV-1 BaL = assay: Anti-HIV assay (luciferase, HIV-1 BaL infection); assay type: cell-based
Method: Assays were performed below in accordance with the procedures set forth in The Journal of Immunology, 2006, 176, pp. 6900-905; AIDS Research and Human Retroviruses, 2004, 20:11, pp. 1157-1665.^32,33 Cells were treated with 2 ng/mL p24 of HIV-1 BaL administered; MOI approx 0.02 (see refs 32, 33). Cells were treated with 2 ng/mL p24 of HIV-1 BaL administered; MOI approx 0.02 (see refs 32, 33).

[1] = TZMbI assay for cell safety (cell viability and growth, CytoTox Glo); conditions: human, TZMbI cells, read-out: % decrease in viability compared to 0.1% DMSO vehicle based on viable cell luminescence
Method: Assays were performed below in accordance with the procedures set forth in The Journal of Immunology, 2006, 176, pp. 6900-905; AIDS Research and Human Retroviruses, 2004, 20:11, pp. 1157-1665.^32,33 TZMbI assays for cell safety were performed to identify potential anti-viral compounds. TZMbI assays for cell safety were performed to identify potential anti-viral compounds per the methods.

CHO cells = assay: CHO cell toxicity, MTS assay, 48 h; assay type: cell-based, Chinese hamster; conditions: Cricetulus griseus, CHO, 37° C., MTS reagent, read-out: CHO 48 h IC50 value
Method: In each case, the chalcone system 8 was more toxic than the corresponding ring-closed system, 9.
The CHO assay was conducted to assess the general toxicity of each flavonoid drug. Briefly, cell growth was assayed in sterile 96-well microtiter plates (Costar 3599, Corning, N.Y., USA) in the presence of each drug. Experiments were conducted in triplicate. CHO cells were plated at 10,000 cells/mL. Drug solutions were prepared in 100% DMSO and dosed so that the final DMSO concentration was <1%. For example, 1 μL of drug solution was added to the CHO cells plated in each well in 100 μL of media. Drug additions occurred after an initial overnight incubation of CHO cells in each well. After drug was added, the cells were incubated in 5% CO2 for 48 h at 37° C. The MTS reagent (Promega Cell Titer 96 Aqueous non-radioactive cell proliferation reagent) was added (20 μL) and the CHO cells were incubated for an additional 4h and then absorbance at 490 nm was measured on a BioTek Synergy MX plate reader. […] IC50 values were determined from the corresponding plot of relative absorbance at 490 nm vs drug concentration.

[2] = tested on: mock transfected 293T HEK cells; assay: PathDetect Elk1 luminescence in mock transfected (empty pcDNA3 vector) 293T HEK cells, off-target effect; assay type: cell-based, human; conditions: Homo sapiens, 10 μM vs 1% DMSO control, Equation 1; read-out: Effect(%) on mock cells with each drug at 10 μM
Method: As a control, the empty pcDNA3 plasmid vector and the components of PathDetect system were also used for mock transfection of 293T HEK cells. Controls containing 1% DMSO were run in parallel. The relative luminescence results found with mock transfected 293T HEK cells treated with 10 μM drug and the untreated 1% DMSO control were compared via the following Equation 1. % Effect on mock cells=(100%×(mock cell luminescence/DMSO control luminescence))−100% Equation (1)
This equation was derived in order to assess the net effect each compound had on non-US28 containing HEK cells transfected via the same protocol. These control experiments were critical as they provided a method to address off target effects such as compound toxicity, which could give rise to false positives in the PathDetect assay.
Compounds, which had no off-target effects, gave nearly identical luminescence values in both the mock cells and the 1% DMSO control (i.e., a mock cell luminescence/DMSO control luminescence ratio of 1) and a net effect of 0% via Equation 1 (e.g., 9j: 0% in Table 1). In contrast, compounds that were stimulatory to the treated HEK cells gave higher mock cell luminescence than the DMSO control, a ratio >1, and a net positive value in Equation 1 for the % effect on mock cells (e.g., 8f: 290%). On the other hand, compounds that were intrinsically toxic gave lower luminescence in the treated mock cells than the DMSO control, a ratio below 1, and a net negative value for the % effect on mock cells (e.g., 8d: ˜42%).
as §1

[3] = EC50 (μM), NE = no effect when tested at 10 μM of compound
[4] = 10 μM, Experiment 1B, 2 ng/mL p24 HIV-1 BaL
[5] = Human immunodeficiency virus 1, BAL, 10 μM, Experiment 1B, 2 ng/mL p24 HIV-1 BaL
[6] = Human immunodeficiency virus 1, BAL, 2.5 μM, Experiment 2B
[7] = Human immunodeficiency virus 1, BAL, 5 μM, Experiment 2B
[8] = Human immunodeficiency virus 1, BAL, 10 μM, Experiment 2B
[9] = Human immunodeficiency virus 1, BAL, 20 μM, Experiment 2B
[10] = NE = no effect when tested at 10 μM of compound

| SMILES | EC50 (US28 receptor; [3]) [µM] | Emax (US28 receptor; negative = inverse agonism) [%] | melting point [°C] | RLU (relative luciferase units) (HIV-1 BaL; [4]) [RLU] | inhibition at 10 µM (HIV-1 BaL; [5]) [%] | cytotoxicity at 10 μM ([1]; Experiment 1A) [%] | IC50 (CHO cells) [µM] | type of activity on the US28 receptor (agonist / inverse agonist / none), in words (US28 receptor) | EC50 (US28 receptor; pEC50 ± SEM) [µM] | RLU (relative luciferase units) (HIV-1 BaL; 2.5 μM, Experiment 2B) [RLU] | RLU (relative luciferase units) (HIV-1 BaL; 5 μM, Experiment 2B) [RLU] | RLU (relative luciferase units) (HIV-1 BaL; 10 μM, Experiment 2B) [RLU] | RLU (relative luciferase units) (HIV-1 BaL; 20 μM, Experiment 2B) [RLU] | inhibition at 2.5 µM (HIV-1 BaL; [6]) [%] | inhibition at 5 µM (HIV-1 BaL; [7]) [%] | inhibition at 10 µM (HIV-1 BaL; [8]) [%] | inhibition at 20 µM (HIV-1 BaL; [9]) [%] | cytotoxicity at 2.5 μM ([1]; Experiment 2A) [%] | cytotoxicity at 5 μM ([1]; Experiment 2A) [%] | activation at 10 µM [2] [%] | other results |
| --- | --- | --- | --- | --- | --- | --- | --- | --- | --- | --- | --- | --- | --- | --- | --- | --- | --- | --- | --- | --- | --- |
| COc1ccc(Cl)cc1/C=C/C(=O)c1ccccc1O [Compound 8h, (E)-3-(5-chloro-2-methoxyphenyl)-1-(2-hydroxyphenyl)prop-2-en-1-one] | 7.8 | ~58 | 81 to 82 | 33.8 | 96.4 | 98.9 | 8.4 ± 0.6 |  |  |  |  |  |  |  |  |  |  |  |  |  | Efficacy(%) (US28 receptor; maximum intrinsic activity from dose-response curve, negative = inverse agonism): ~58% |
| CCOc1ccc(Cl)cc1-c1oc2ccccc2c(=O)c1O [Compound 9i, 2-(5-chloro-2-ethoxyphenyl)-3-hydroxy-4H-chromen-4-one] |  | -41 | 156 to 159 | 361.0 | 61.4 | 21.8 | > 100 | inhibited US28 activity | 0.309 | 238.44 | 204.06 | 159.94 | 81.12 | 8.25 | 26.1 | 41.5 | 74.6 | 6.19 | 10.7 |  | RLU (relative luciferase units) (HIV-1 BaL; 1.25 μM, Experiment 2B): 254.23 RLU; inhibition at 1.25 µM (HIV-1 BaL; Human immunodeficiency virus 1, BAL, 1.25 μM, Experiment 2B): 2.53%; cytotoxicity at 1.25 μM ([1]; 1.25 μM, Experiment 2A): 10.8%; cytotoxicity at 10 μM ([1]; Experiment 2A): 18.7%; cytotoxicity at 20 μM ([1]; Experiment 2A): 21.6% |
| COc1ccc(Br)cc1C1CC(=O)c2ccccc2O1 (centres unmarked) [Compound 13b, 2-(5-Bromo-2-methoxyphenyl)chroman-4-one] | > 10 |  |  | 884.5 | 2.8 | -9.1 | 67.9 ± 9.3 | did not have any significant effect |  |  |  |  |  |  |  |  |  |  |  | -5 | EC50 (US28 receptor; [10]): > 10 µM |
| CCOc1ccc(Br)cc1-c1oc2ccccc2c(=O)c1O [Compound 9c, 2-(5-Bromo-2-ethoxyphenyl)-3-hydroxy-4H-chromen-4-one] | 0.8 |  | 149 to 155 | 727.6 | 22.3 | -8.9 | 13.5 ± 1.3 | inhibited US28 activity | 0.832 | 30.81 | 33.63 | 49.29 | 69.09 | -6.23 | -0.19 | 0.1 | 14.8 | -6.23 | -0.19 |  | RLU (relative luciferase units) (HIV-1 BaL; 40 μM, Experiment 2B): 88.45 RLU; inhibition at 40 µM (HIV-1 BaL; Human immunodeficiency virus 1, BAL, 40 μM, Experiment 2B): 64.2%; cytotoxicity at 10 μM ([1]; Experiment 2A): 0.1%; cytotoxicity at 20 μM ([1]; Experiment 2A): 14.8%; cytotoxicity at 40 μM ([1]; 40 μM, Experiment 2A): 64.2% |
| CCOc1ccc(Br)cc1/C=C/C(=O)c1ccccc1O [Compound 8c, (E)-3-(5-bromo-2-ethoxyphenyl)-1-(2-hydroxyphenyl)prop-2-en-1-one] | 5 | ~88 |  | 112.3 | 88.1 | 53.3 | 7.2 ± 0.5 |  |  |  |  |  |  |  |  |  |  |  |  | -3 |  |
| COc1ccccc1-c1cc(=O)c2ccccc2o1 [Compound 11c, 2-(2-Methoxyphenyl)-4H-chromen-4-one] | > 10 |  |  | 235.6 | 74.8 | 39.5 | 64.8 ± 8.1 | inactive ligand |  |  |  |  |  |  |  |  |  |  |  | 3 | EC50 (US28 receptor; [10]): > 10 µM |
